Measured values taken from patent publication US8193351B2, “HSP90 inhibitor” (Chugai Seiyaku Kabushiki Kaisha, priority 2006, dated 2012).

How the values were obtained:
Human HSP90 alpha = target: T1, Human HSP90 alpha (Homo sapiens, UniProt P07900); test: Measurement of HSP90 enzyme inhibitory activity (ATPase, malachite green); format: biochemical; conditions: purified human HSP90 alpha, 1 mM ATP added, 37° C., two hours; read-out: Enzyme inhibitory activity (IC50, μM) Human HSP 90α
T1 construct: made in house; host or cells: E. coli BL21 codon plus (Stratagene)
Protocol: HSP90 enzyme inhibitory activity of the compounds of the present invention represented by formula (1) was measured by the following method. Among the 6-phenyl-N-phenyl-(1,3,5)triazin/(1,3)pyrimidin-2,4-diamine derivatives which are known LPAAT-β inhibitors, the following two compounds were used as comparative compounds, and their HSP90 enzyme inhibitory activities were measured similarly by the following method.
Introduction of pETHuHSP90a into E. coli (BL21 codon plus; Stratagene) was followed by O/N incubation in the presence of 0.1 mM IPTG, and the collected E. coli cells were disrupted by ultrasonication in a Lysis buffer (50 mM Tris-HCl (pH8.0), 10 mM MgCl2, 0.1% Triton X-100, Protease inhibitor cocktail tablets (Roche Diagnostics)). The cell lysate solution was centrifuged (10,000 rpm×30 minutes), and the supernatant obtained after centrifugation was used as a crude extract. The crude extract was fractionated using HisPrep FF column and HiTrap Q column (Amersham) to prepare a purified enzyme solution.
An enzyme solution for assays was prepared by dilution of the purified enzyme solution using an assay buffer (50 mM Tris HCl pH7.6, 20 mM KCl, 5 mM MgCl2).
10 μL each of various concentrations of the test substances (10% DMSO solution) was added to each well, and for the positive control wells, 10 μL of 10% DMSO was added. 10 μL of 10% DMSO was also added to the negative control well.
10 μL of 1 mM ATP was added to all of the wells, and the reaction was carried out at 37° C. for two hours.

HCT116 cells = test: Measurement of cell growth inhibition (Cell Counting Kit-8, four days); format: cell-based; conditions: Homo sapiens, HCT-116, 96 h; HCT116 colon cancer cell line, four days culture; read-out: Cell growth inhibitory activity (IC50, μM) HCT116
Protocol: Cell growth inhibitory activities of the compounds of the present invention represented by formula (1) were measured by the following method.
Cells were maintained under conditions recommended by the provider of each cell line. Cells suspended in a medium were added to solutions containing various concentrations of the test substance, and the cells were cultured at 37° C. in a 5% CO2 incubator. Four days later, Cell Counting Kit-8 was added, and absorbance measurements were taken following the protocol included in the kit.

| Structure (SMILES) | IC50 (Human HSP90 alpha) [µM] | IC50 (HCT116 cells) [µM] |
| --- | --- | --- |
| N#CCNC(=O)CSc1cc(-c2c(Cl)cc3c4c(cccc24)COC3)nc(N)n1 [Example 315, 2-[2-amino-6-(5-chloro-1H,3H-benzo[de]isochromen-6-yl)-pyrimidin-4-ylsulfanyl]-N-cyanomethyl-acetamide] | 1.9 | 2.1 |
| COc1cc(C(=O)N2CCN(C)CC2)ccc1Sc1nc(N)nc(-c2cc(OCC#N)c(Cl)cc2Cl)n1 [Example 15, (5-{4-amino-6-[2-methoxy-4-(4-methyl-piperazin-1-carbonyl)-phenylsulfanyl]-[1,3,5]triazin-2-yl}-2,4-dichlorophenoxy)-acetonitrile] | 2 | 0.35 |
| NC(=O)CCCSc1cc(-c2c(Cl)cc3c4c(cccc24)COC3)nc(N)n1 [Example 324, 4-[2-amino-6-(5-chloro-1H,3H-benzo[de]isochromen-6-yl)-pyrimidin-4-ylsulfanyl]-butylamide] | 1.8 | 0.16 |
| CNC(=O)CCSc1cc(-c2c(Cl)cc3c4c(cccc24)COC3)nc(N)n1 [Example 318, 3-[2-amino-6-(5-chloro-1H,3H-benzo[de]isochromen-6-yl)-pyrimidin-4-ylsulfanyl]-N-methyl-propionamide] | 1.4 | 0.22 |
| COc1ccc(OC)c(Sc2cc(-c3ccc(OCCCO)cc3C)nc(N)n2)c1 [Example 44, 3-{4-[2-amino-6-(2,5-dimethoxyphenylsulfanyl)-pyrimidin-4-yl]-3-methylphenoxy}-propan-1-ol] | 2.2 | 14.5 |
| CNC(=O)C(C)CSc1nc(N)nc(-c2c(Cl)cc3c4c(cccc24)COC3)n1 (stereo not drawn) [Example 337, 3-[4-amino-6-(5-chloro-1H,3H-benzo[de]isochromen-6-yl)-[1,3,5]triazin-2-ylsulfanyl]-2,N-dimethyl-propionamide] | 1.5 | 0.018 |
| Nc1nc(SCC2CNC(=O)O2)cc(-c2c(Cl)cc3c4c(cccc24)COC3)n1 (stereo not drawn) [Example 330, 5-[2-amino-6-(5-chloro-1H,3H-benzo[de]isochromen-6-yl)-pyrimidin-4-ylsulfanylmethyl]-oxazolidin-2-one] | 1.2 | 2.1 |
| CC(CSc1cc(-c2c(Cl)cc3c4c(cccc24)COC3)nc(N)n1)C(=O)NCCO (stereo not drawn) [Example 323, 3-[2-amino-6-(5-chloro-1H,3H-benzo[de]isochromen-6-yl)-pyrimidin-4-ylsulfanyl]-N-(2-hydroxy-ethyl)-2-methyl-propionamide] | 2.8 | 0.21 |
| Nc1nc(SCCC(=O)NC[C@@H](O)CO)cc(-c2c(Cl)cc3c4c(cccc24)COC3)n1 [Example 320, 3-[2-amino-6-(5-chloro-1H,3H-benzo[de]isochromen-6-yl)-pyrimidin-4-ylsulfanyl]-N—((R)-2,3-dihydroxy-propyl)-propionamide] | 1.4 | 0.63 |
| Nc1nc(SCCNC(=O)CO)nc(-c2c(Cl)cc3c4c(cccc24)COC3)n1 [Example 342, N-{2-[4-amino-6-(5-chloro-1H,3H-benzo[de]isochromen-6-yl)-[1,3,5]triazin-2-ylsulfanyl]-ethyl}-2-hydroxy-acetamide] | 1.3 | 0.49 |
| Nc1nc(SCCNC(=O)CO)cc(-c2c(Cl)cc3c4c(cccc24)COC3)n1 [Example 331, N-{2-[2-amino-6-(5-chloro-1H,3H-benzo[de]isochromen-6-yl)-pyrimidin-4-ylsulfanyl]-ethyl}-2-hydroxy-acetamide] | 1.5 | 1.9 |
| NC(=O)c1cc(-c2nc(N)nc(SCc3ccccc3)n2)c(Cl)cc1Cl [Example 26, 5-(4-amino-6-benzylsulfanyl-[1,3,5]triazin-2-yl)-2,4-dichlorobenzamide] | 2.8 | 1.3 |
| CCOC(=O)c1cnc(Sc2cc(-c3cc(OCC#N)c(Cl)cc3Cl)nc(N)n2)[nH]1 [Example 55, 2-[2-amino-6-(2,4-dichloro-5-cyanomethoxyphenyl)-pyrimidin-4-ylsulfanyl]-3H-imidazol-4-carboxylic acid ethyl ester] | 1.7 | 5.3 |
| NC(=O)OCCSc1cc(-c2c(Cl)cc3c4c(cccc24)COC3)nc(N)n1 [Example 325, carbamic acid 2-[2-amino-6-(5-chloro-1H,3H-benzo[de]isochromen-6-yl)-pyrimidin-4-ylsulfanyl]-ethyl ester] | 2.1 | 0.26 |
| NC(=O)NCCSc1cc(-c2c(Cl)cc3c4c(cccc24)COC3)nc(N)n1 [Example 332, {2-[2-amino-6-(5-chloro-1H,3H-benzo[de]isochromen-6-yl)-pyrimidin-4-ylsulfanyl]-ethyl}-urea] | 2.2 | 0.47 |
| Nc1nc(SCc2ccccc2)nc(-c2cc(C(=O)NC(CO)CO)c(Cl)cc2Cl)n1 [Example 28, 5-(4-amino-6-benzylsulfanyl-[1,3,5]triazin-2-yl)-2,4-dichloro-N-(2-hydroxy-1-hydroxymethylethyl)-benzamide] | 1.2 | 1.2 |
| CC(=O)NCCCSc1nc(N)nc(-c2c(Cl)cc3c4c(cccc24)COC3)n1 [Example 149, N-{3-[4-amino-6-(5-chloro-1H,3H-benzo[de]isochromen-6-yl)-[1,3,5]triazin-2-ylsulfanyl]-propyl}-acetamide] | 2.8 | 0.11 |
| N#CCOc1cc(-c2cc(Sc3nc4ccccc4[nH]3)nc(N)n2)c(Cl)cc1Cl [Example 54, {5-[2-amino-6-(1H-benzimidazol-2-ylsulfanyl)-pyrimidin-4-yl]-2,4-dichlorophenoxy}-acetonitrile] | 1.5 | 1.1 |
| CSc1nc(N)nc(-c2cc(-c3ncccn3)c(Cl)cc2Cl)n1 [Example 24, 4-(2,4-dichloro-5-pyrimidin-2-yl-phenyl)-6-methylsulfanyl-[1,3,5]triazin-2-ylamine] | 2.1 | 1 |
| COC(=O)CSc1nc(N)nc(-c2c(Cl)cc3c4c(cccc24)COC3)n1 [Example 111, [4-amino-6-(5-chloro-1H,3H-benzo[de]isochromen-6-yl)-[1,3,5]triazin-2-ylsulfanyl]-acetic acid methyl ester] | 1.1 | 0.2 |
| COc1ccc(OC)c(Sc2cc(-c3ccc(OCC(N)=O)cc3C)nc(N)n2)c1 [Example 46, 2-{4-[2-amino-6-(2,5-dimethoxyphenylsulfanyl)-pyrimidin-4-yl]-3-methylphenoxy}-acetamide] | 1.5 | 8.1 |
| Nc1nc(SCc2ccccc2)nc(-c2cc(OCc3ccccc3)c(Cl)cc2Cl)n1 [Example 4, 4-(5-benzyloxy-2,4-dichlorophenyl)-6-benzylsulfanyl[1,3,5]triazin-2-ylamine] | 1.2 | 8.5 |
| CC(=O)Nc1ccccc1CSc1nc(N)nc(-c2c(Cl)cc3c4c(cccc24)COC3)n1 [Example 143, N-{2-[4-Amino-6-(5-chloro-1H,3H-benzo[de]isochromen-6-yl)-[1,3,5]triazin-2-ylsulfanylmethyl]-phenyl}-acetamide] | 1 | 0.28 |
| Nc1nc(SCCCO)nc(-c2c(Cl)cc3c4c(cccc24)COC3)n1 [Example 340, 3-[4-amino-6-(5-chloro-1H,3H-benzo[de]isochromen-6-yl)-[1,3,5]triazin-2-ylsulfanyl]-propan-1-ol] | 3.3 | 0.12 |
| N#CCNC(=O)CSc1nc(N)nc(-c2c(Cl)cc3c4c(cccc24)COC3)n1 [Example 333, 2-[4-amino-6-(5-chloro-1H,3H-benzo[de]isochromen-6-yl)-[1,3,5]triazin-2-ylsulfanyl]-N-cyano methyl-acetamide] | 1.9 | 0.38 |
| CC(=O)NCCCSc1cc(-c2c(Cl)cc3c4c(cccc24)COC3)nc(N)n1 [Example 328, N-{3-[2-amino-6-(5-chloro-1H,3H-benzo[de]isochromen-6-yl)-pyrimidin-4-ylsulfanyl]-propyl}-acetamide] | 2.1 | 0.2 |
| CNC(=O)C(C)CSc1cc(-c2c(Cl)cc3c4c(cccc24)COC3)nc(N)n1 (stereo not drawn) [Example 322, 3-[2-amino-6-(5-chloro-1H,3H-benzo[de]isochromen-6-yl)-pyrimidin-4-ylsulfanyl]-2,N-dimethyl-propionamide] | 1.7 | 0.08 |
| COCCNC(=O)CCSc1cc(-c2c(Cl)cc3c4c(cccc24)COC3)nc(N)n1 [Example 319, 3-[2-amino-6-(5-chloro-1H,3H-benzo[de]isochromen-6-yl)-pyrimidin-4-ylsulfanyl]-N-(2-methoxy-ethyl)-propionamide] | 2.1 | 0.62 |
| CSc1nc(N)nc(-c2ccccc2)n1 [4-methylsulfanyl-6-phenyl-[1,3,5]triazin-2-ylamine, reference compound] | 33.8 | – |
